One test has as its system IL-lb-induced proteoglycan breakdown in bovine nasal cartilage. Description: in vitro cytokine-induced cartilage degradation assay (Bovine Nasal Septum Cartilage Degradation Assay). The format is cell-based. The following applies: Bos taurus; IL-lb (500 ng/ml), 40 hours, 37° C. As for the experimental part: The compounds are efficacious in an in vitro cytokine-induced cartilage degradationassay (Arner EC and Pratta MA 1989. Arthritis Rheum 32:288-297). The activity of these compounds in blocking IL-lb-induced proteoglycan breakdown in bovine nasal cartilage was assessed.
Bovine nasal cartilage was incubated in Dulbecco's 10 modified Eagle's Medium (DMEM) containing 5% FCS and antibiotics at 37° C. in an atmosphere of 95% air and 5% CO2 for 40 hours in the absence or presence of IL-lb (500 ng/ml), with or without compound. Compounds were dissolved in DMSO (10^-2M) and further diluted with 15 medial to the required concentration and were included throughout the culture period. At the end of incubation, media were removed and assayed proteoglycan breakdown products using the 1,9 dimethylmethylene blue assay for glycosaminoglycans. Compounds were evaluated for the ability to block the stimulated release of proteoglycan in response to IL-l.
For the compound `N#Cc1ccc(-n2sc(-c3ccccc3)cc2=O)cc1` [Example 18], the IC50 was 7.8 µM. As for `COc1cccc(-n2sc(-c3ccccc3)cc2=O)c1` [Example 20], the IC50 turned out to be 19 µM. This IC50 is about 2.4-fold higher than that of the compound before. Take `O=c1cc(-c2ccccc2C(F)(F)F)sn1-c1ccccc1` [Example 34]: the IC50 stood at 7.2 µM. In the case of `O=c1cc(-c2cccc(C(F)(F)F)c2)sn1-c1ccccc1` [Example 33], the midpoint of inhibition, the IC50, lay at 14 µM. `Cc1cc([N+](=O)[O-])ccc1-n1sc(-c2ccccc2)cc1=O` [Example 17]: half-maximal inhibition (IC50) was put at 14 µM. For the compound `O=c1cc(-c2cccc(Cl)c2)sn1-c1ccccc1` [Example 29], inhibition was half-maximal at 18.5 µM (IC50). This IC50 and that of the compound before are within 1.5-fold of each other. Still for that read-out and setting: the figure for `O=c1cc(-c2ccccc2)sn1-c1ccc(Cl)cc1` [Example 13] is 14.8 µM; for `CCOC(=O)c1ccc(-n2sc(-c3ccccc3)cc2=O)cc1` [Example 4, N-(4-carbethoxyphenyl)-5-phenyl-4-isothiazolin-3-one] it is 8.3 µM. On to `O=c1cc(-c2ccccc2)sn1-c1ccc([N+](=O)[O-])cc1` [Example 16], for which half-maximal inhibition (IC50) was put at 31 µM. Take `O=c1cc(-c2ccccc2)sn1-c1nc2ccccc2s1` [Example 8, N-(2-benzothiazolyl)-5-phenyl-4-isothiazolin-3-one]: the IC50 came to 15 µM. Regarding `CCOC(=O)c1cccc(-n2sc(-c3ccccc3)cc2=O)c1` [Example 37], it took 7.8 µM to reach half-maximal inhibition (IC50). This IC50 is about 1.9-fold lower than that of the compound before. Take `CCOC(=O)c1ccccc1-n1sc(-c2ccccc2)cc1=O` [Example 38]: the midpoint of inhibition, the IC50, lay at 12 µM. Against the preceding compound, the IC50 is about 1.5-fold higher.

For `O=c1cc(-c2ccccc2)sn1-c1ccc(C(F)(F)F)cc1` [Example 15], 7.2 µM corresponded to half-maximal inhibition (IC50). Compound `O=c1cc(-c2ccc(Cl)cc2)sn1-c1ccccc1` [Example 28] registered an IC50 of 14.8 µM. Compared with the last compound, the IC50 is about 2.1-fold higher. Still for that read-out and setting: the figure for `O=c1cc(-c2ccccc2Cl)sn1-c1ccccc1` [Example 11] is 11.2 µM.

Compound `O=c1c(-c2ccccc2)c(-c2ccccc2)sn1-c1ccccc1` [Example 10, 4,5,N-triphenyl-4-isothiazolin-3-one] registered an IC50 of 43.5 µM. The compound `O=c1cc(-c2ccccc2)sn1-c1cccc(Cl)c1` [Example 19] came in with an IC50 of 11.3 µM. On to `Cc1ccc(-n2sc(-c3ccccc3)cc2=O)cc1` [Example 1, N-(4-methylphenyl)-5-phenyl-4-isothiazolin-3-one], for which 13.2 µM corresponded to half-maximal inhibition (IC50). With `COc1ccccc1-c1cc(=O)n(-c2ccccc2)s1` [Example 12], the IC50 was 34.5 µM. Turning to `O=c1cc(-c2ccccc2)sn1-c1cccc(C(F)(F)F)c1` [Example 21], the IC50 came out at 7 µM.

The test is the same for the next values; noted with them: Bos taurus; at 30 μM; IL-lb (500 ng/ml), 40 hours, 37° C.
On to `Nc1ccc(-n2sc(-c3ccccc3)cc2=O)cc1` [Example 39, N-(4-aminophenyl)-5-phenyl-4-isothiazolin-3-one], for which the inhibition at 30 µM came out at 32%. As for `O=c1cc(-c2ccccc2)sn1-c1ccccc1Cl` [Example 23], the inhibition at 30 µM stood at 33%. `Nc1ccccc1-n1sc(-c2ccccc2)cc1=O` [Example 6, N-(2-aminophenyl) -5-phenyl-4-isothiazolin-3-one] gave an inhibition at 30 µM of 19%.

On to `COc1ccc(-c2cc(=O)n(-c3ccccc3)s2)cc1` [Example 30], for which the inhibition at 30 µM was determined as 37%.

In the case of `O=C(O)c1cccc(-n2sc(-c3ccccc3)cc2=O)c1` [Example 35], testing at 30 µM gave an inhibition of 13%. On the same count and under the same terms, in the case of `O=C(O)c1ccc(-c2cc(=O)n(-c3ccccc3)s2)cc1` [Example 9, 5-(4-carboxyphenyl)-N-phenyl-4-isothiazolin-3-one] it was 18%. `Cc1ccccc1-n1sc(-c2ccccc2)cc1=O` [Example 22]: the inhibition at 30 µM is 52%. `O=C(O)c1ccccc1-n1sc(-c2ccccc2)cc1=O` [Example 36] gave an inhibition at 30 µM of 26%. In the case of `O=c1c(Br)c(-c2ccccc2)sn1-c1ccccc1` [Example 2, 4-bromo-N,5-diphenyl-4-isothiazolin-3-one], the inhibition at 30 µM was 38%. `O=C(O)c1ccc(-n2sc(-c3ccccc3)cc2=O)cc1` [Example 3, N-(4-carboxyphenyl)-5-phenyl-4-isothiazolin-3-one] showed an inhibition at 30 µM of 19%. For the compound `O=c1cc(-c2ccccc2)sn1-c1ccccc1[N+](=O)[O-]` [Example 26, N-(2-nitrophenyl)-5-phenyl-4-isothiazolin-3-one], the inhibition at 30 µM worked out at 43%. Take `COc1ccccc1-n1sc(-c2ccccc2)cc1=O` [Example 24]: testing at 30 µM gave an inhibition of 61%. Consider `NC(=O)c1ccc(-n2sc(-c3ccccc3)cc2=O)cc1` [Example 5, N-(4-carboxamidophenyl)-5-phenyl-4-isothiazolin-3-one], for which at 30 µM the inhibition was 42%. In turn, `O=c1cc(-c2ccc(C(F)(F)F)cc2)sn1-c1ccccc1` [Example 32] had an inhibition at 30 µM of 25%. `O=c1cc(-c2ccccc2)sn1-c1ccc(N(S(=O)(=O)C(F)(F)F)S(=O)(=O)C(F)(F)F)cc1` [Example 7, N-(4-(bistrifluoromethane)sulfonamidophenyl)-5-phenyl-4-isothiazolin-3-one] returned an inhibition at 30 µM of 48%. `COc1ccc(-n2sc(-c3ccccc3)cc2=O)cc1` [Example 14] gave an inhibition at 30 µM of 85%.

As to `O=c1cc(-c2ccccc2)sn1-c1ccccc1C(F)(F)F` [Example 25], the inhibition at 30 µM stood at 25%. Regarding `Cc1cc(N)ccc1-n1sc(-c2ccccc2)cc1=O` [Example 40], the inhibition at 30 µM was found to be 14%.

The values above are taken from patent US5411977A, “Substituted 2,5-diaryl-4-isothiazolin-3-ones as antiinflammatory and antithrombotic agents” (The Dupont Merck Pharmaceutical Company, priority 1993, dated 1995).
